{
  "source": "paper PMC8951016",
  "about": "“Computational Design and Biological Evaluation of Analogs of Lupin Peptide P5 Endowed with Dual PCSK9/HMG-CoAR Inhibiting Activity” (Pharmaceutics, 2022)",
  "system": "PCSK9",
  "assay": "Western blot, PCSK9 protein level in HepG2",
  "assay_type": "cell-based, human",
  "conditions": "active at 50 µM in hepatic cells vs 250 µM; PCSK9 protein level and secretion",
  "description": "A total of 1.5 × 10^5 HepG2 cells/well (24-well plate) were treated with 50 μM of P5 and P5 analogs for 24 h. Immunoblotting experiments were performed using optimized protocol. See Supplementary Materials for further details.\nPBS for 1.5 h at RT. LDLR primary antibody solution (1:3000 in 5% BSA in PBS, 25 µL/well) was incubated O/N at +4 °C. Subsequently, the primary antibody solution was discarded and each sample was washed 5 times with 100 µL/well of PBS (each wash was for 5 min at RT). Goat anti-rabbit Ig-HRP secondary antibody solution (Santa Cruz) (1:6000 in 5% BSA in PBS, 50 µL/well), was added and incubated 1 h at RT. […] The reaction was stopped with 2 M H2SO4 and then the absorbance at 450 nm was measured using the microplate reader Synergy H1 (Winoo-ski, VT, USA). After the read, cells were stained by adding 1 X Janus Green stain, incubat-ing for 5 min at RT. […]\nAfterward 100 µL 0.5 M HCl for well were added and incubated for 10 min. After 10 sec-onds shaking, the OD at 595 nm was measured using the microplate reader Synergy H1 […]\nFluorescent LDL Uptake. […] The degree of LDL uptake was measured using the Synergy H1 fluo-rescent plate reader (Winooski, VT, USA) (excitation and emission wavelengths 540 and 570 nm, respectively). Fluorescent LDL-uptake was finally assessed following optimized […]",
  "data": [
    {"sequence": "LILPKHSDAD [Peptide P5, natural peptide derived from a peptic lupin protein hydrolysate]", "values": [
      {"measurement": "fold potency vs YVVNPDNNEN", "result": "5 -fold"}
    ]}
  ]
}
